The test system of one assay is A2058 cells. As to the kind of experiment: Cell viability assay (CELL-TITER-GLO) in A2058 cells. The format is cell-based. The note with it: Homo sapiens, A2058 cells, 48 hour treatment, cell viability, read-out: IC50 (μM) A2058. How it is done: (§1) Cell viability assays were run using standard protocols known to those of skill in art. Cells were plated in 96 well plates at the density of 3,000-10,000 cells per well. Twenty four hours later, cells were treated with increasing concentration of test compounds (1 nM to 1 μM). After another 48 hour, cell survival was measured using CELL-TITER-GLO® reagent (Promega) following the protocol provided by the manufacture. The IC50 value was determined as the concentration of test compound that kills 50% of the cell population.
(§2) Cell viability data generated according to the protocol described in Example 97 was generated for representative compounds in A2058 and U937 cells.

In another assay the test system is U937 cells. The assay can be described thus: Cell viability assay (CELL-TITER-GLO) in U937 cells. It counts as cell-based. The note with it: Homo sapiens, U937 cells, 48 hour treatment, cell viability, read-out: IC50 (μM) U937. How it is done:
as §1, §2

This is an account of results in US7989482B2, “Indoline anti-cancer agents” (Joyant Pharmaceuticals, Inc., priority 2008, dated 2011).

Read-outs that look alike come from different tables or passages of the source.

Usually IC50 stands for the midpoint of a concentration-inhibition curve. Turning to `CC(C)[C@H](O)C(=O)N[C@H]1Cc2ccc3c(c2)[C@]24C5=C(N=C(O5)[C@H](C(C)C)NC1=O)c1ncc(o1)-c1c[nH]c5cccc(c15)-c1cccc2c1NC4O3` (some centres unmarked) [Cpd J, reference compound], the IC50 with A2058 cells (A2058, 48 h) amounted to 0.039 µM; in the assay on U937 cells (U-937, 48 h) it was 0.026 µM.
On the same counts, the results for `COC(=O)c1nc2oc1[C@@]13c4ccccc4NC1Oc1ccc(cc13)CC(N)C(=O)N[C@H]2C(C)C` (some centres unmarked) [Example 3] are more than 1 µM and more than 1 µM.
As to `COC(=O)c1nc2oc1[C@@]13c4ccccc4NC1Oc1ccc(cc13)CC(NC(=O)OCc1ccccc1)C(=O)N[C@H]2C(C)C` (some centres unmarked) [Example 4], the IC50 in the assay on A2058 cells and with U937 cells (U-937) was more than 1 µM throughout.
In the case of `COC(=O)c1nc2oc1[C@@]13c4ccccc4NC1Oc1ccc(cc13)C[C@H](NC(=O)[C@@H](O)C(C)C)C(=O)N[C@H]2C(C)C` (some centres unmarked) [Example 6], the IC50 in the assay with A2058 cells (A2058, 48 h) was more than 1 µM; with U937 cells (U-937, 48 h), more than 1 µM.
On to `COC(=O)c1nc2oc1[C@@]13c4ccccc4NC1Oc1ccc(cc13)C[C@H](NC(=O)[C@@H](O)c1ccccc1)C(=O)N[C@H]2C(C)C` (some centres unmarked) [Example 7], for which the IC50 with A2058 cells (A2058, 48 h) is more than 1 µM; with U937 cells (U-937, 48 h), more than 1 µM.
As for `[H][C@]1(C(=O)N[C@H]2Cc3ccc4c(c3)C3(C5=C(C(=O)OC)N=C(O5)[C@H](C(C)C)NC2=O)c2ccccc2N[C@H]3O4)CCCO1` (some centres unmarked) [Example 8], the IC50 was more than 1 µM in the assay with A2058 cells (A2058, 48 h) and more than 1 µM in the assay with U937 cells (U-937, 48 h).
On to `COC(=O)c1nc2oc1C13c4ccccc4N[C@H]1Oc1ccc(cc13)C[C@H](NC(=O)[C@@H](O)CC(C)C)C(=O)N[C@H]2C(C)C` (some centres unmarked) [Example 9], for which the IC50 in the assay on A2058 cells (A2058, 48 h) was more than 1 µM; in the assay with U937 cells (U-937, 48 h) it was more than 1 µM.
For the compound `COC(=O)c1nc2oc1C13c4ccccc4N[C@H]1Oc1ccc(cc13)C[C@H](NC(=O)c1cc(OC)c(OC)c(OC)c1)C(=O)N[C@H]2C(C)C` (some centres unmarked) [Example 10], the IC50 in the assay with A2058 cells (A2058, 48 h) was more than 1 µM; in the assay with U937 cells (U-937, 48 h), more than 1 µM.
Consider `CC(C)[C@H](O)C(=O)N[C@H]1Cc2ccc3c(c2)[C@]2(C4=C(C(=O)NCCc5c[nH]c6ccccc56)N=C(O4)[C@H](C(C)C)NC1=O)c1ccccc1NC2O3` (some centres unmarked) [Example 11], for which the IC50 is more than 1 µM with A2058 cells (A2058, 48 h) and more than 1 µM in the assay with U937 cells (U-937, 48 h).
For the compound `CC(C)[C@H](O)C(=O)N[C@H]1Cc2ccc3c(c2)[C@]2(C4=C(C(=O)O)N=C(O4)[C@H](C(C)C)NC1=O)c1ccccc1NC2O3` (some centres unmarked) [Example 12], the IC50 in the assay with A2058 cells and in the assay on U937 cells (U-937) was more than 1 µM each time.
With `COC(=O)[C@@H]1CCCN1C(=O)c1nc2oc1C13c4ccccc4N[C@H]1Oc1ccc(cc13)C[C@H](NC(=O)[C@@H](O)C(C)C)C(=O)N[C@H]2C(C)C` (some centres unmarked) [Example 13], the IC50 is more than 1 µM in the assay with A2058 cells (A2058, 48 h) and more than 1 µM in the assay on U937 cells (U-937, 48 h).
In the case of `CC(C)[C@H](O)C(=O)N[C@H]1Cc2ccc3c(c2)C2(C4=C(C(=O)N5CCCC5)N=C(O4)[C@H](C(C)C)NC1=O)c1ccccc1N[C@H]2O3` (some centres unmarked) [Example 14], the IC50 in the assay with A2058 cells (A2058, 48 h) was more than 1 µM; in the assay on U937 cells (U-937, 48 h), more than 1 µM.
With `CC(C)[C@H](O)C(=O)N[C@H]1Cc2ccc3c(c2)C2(C4=C(C(=O)NCc5ccccc5)N=C(O4)[C@H](C(C)C)NC1=O)c1ccccc1N[C@H]2O3` (some centres unmarked) [Example 15], the IC50 with A2058 cells and with U937 cells (U-937) was more than 1 µM in each case.
`CC(C)[C@H](O)C(=O)N[C@H]1Cc2ccc3c(c2)C2(C4=C(C(=O)NCC5CCCCC5)N=C(O4)[C@H](C(C)C)NC1=O)c1ccccc1N[C@H]2O3` (some centres unmarked) [Example 16]: the IC50 was more than 1 µM in the assay with A2058 cells (A2058, 48 h) and more than 1 µM with U937 cells (U-937, 48 h).
Consider `CC(C)[C@H](O)C(=O)N[C@H]1Cc2ccc3c(c2)C2(C4=C(C(=O)N[C@@H]5CCCc6ccccc65)N=C(O4)[C@H](C(C)C)NC1=O)c1ccccc1N[C@H]2O3` (some centres unmarked) [Example 17], for which the IC50 in the assay on A2058 cells (A2058, 48 h) is more than 1 µM; in the assay on U937 cells (U-937, 48 h), more than 1 µM.
In the case of `CC(C)[C@H](O)C(=O)N[C@H]1Cc2ccc3c(c2)C2(C4=C(C(=O)NCC(c5ccccc5)c5ccccc5)N=C(O4)[C@H](C(C)C)NC1=O)c1ccccc1N[C@H]2O3` (some centres unmarked) [Example 18], the IC50 in the assay with A2058 cells (A2058, 48 h) is more than 1 µM; in the assay on U937 cells (U-937, 48 h) it was more than 1 µM.
As for `CC(C)[C@H](O)C(=O)N[C@H]1Cc2ccc3c(c2)C2(C4=C(C(=O)NC(c5ccccc5)c5ccccc5)N=C(O4)[C@H](C(C)C)NC1=O)c1ccccc1N[C@H]2O3` (some centres unmarked) [Example 19], the IC50 with A2058 cells and in the assay with U937 cells (U-937) was more than 1 µM in each case.
As to `CC(C)[C@H](O)C(=O)N[C@H]1Cc2ccc3c(c2)C2(C4=C(C(=O)NCc5ccc(F)cc5)N=C(O4)[C@H](C(C)C)NC1=O)c1ccccc1N[C@H]2O3` (some centres unmarked) [Example 20], the IC50 with A2058 cells (A2058, 48 h) was more than 1 µM; in the assay on U937 cells (U-937, 48 h) it was more than 1 µM.
Turning to `CC(C)[C@H](O)C(=O)N[C@H]1Cc2ccc3c(c2)C2(C4=C(C(=O)N5CCCC5c5ccccc5)N=C(O4)[C@H](C(C)C)NC1=O)c1ccccc1N[C@H]2O3` (some centres unmarked) [Example 21], the IC50 with A2058 cells (A2058, 48 h) was more than 1 µM; in the assay with U937 cells (U-937, 48 h), more than 1 µM.
